Measured values taken from PMC6663621 (Cancer, 2019).
“And” between values parts separate entries of the source, which are not always exact repeats. Equal entries are not always repeated. Where two headings read alike, the source gives them in different places.

Legend:
[1] = clinical; settings: human, plasma
[2] = plasma, Cohort 1, CC-486 dose 200 mg oral, Cycle 1 Day 1, actual values (n=2)
[3] = plasma, Cohorts 2 and 3, CC-486 dose 300 mg oral, Cycle 1 Day 1, mean ± SD

Row | difference in dose-normalized exposure, apparent clearance, apparent volume of distribution or half-life (200 or 300 mg CC-486) | AUCINF [2] | Cl/F [2] | V/F [2] | t1/2 [2] | Cl/F [3] | V/F [3] | Tmax ([1]; oral) | Cmax ([1]; po, 200 mg) | Tmax ([1]; po, 200 mg) | Cmax ([1]; po, 300 mg) | Tmax ([1]; po, 300 mg) | Cmax ([1]; iv, 8 mg/m2) | Tmax ([1]; iv, 8 mg/m2) | clearance ([1]; iv, 8 mg/m2) | SMILES
1 | no difference | 538 ng·h/mL | 372 L/h and 373 L/h | 293 L and 319 L | 0.59 h | 922 ± 892 (10) L/h | 731 ± 557 (10) L | ~1 h | 324 ± 157 ng/mL | 1 h | 226 ± 130 ng/mL | 1.08 h | – | – | – | Nc1ncn([C@@H]2O[C@H](CO)[C@@H](O)[C@H]2O)c(=O)n1 [5-azacitidine]
2 | – | – | – | – | – | – | – | – | – | – | – | – | 455 ± 255 ng/mL | 4 h | 178 mL/min | C/C=C1\NC(=O)[C@H]2CSSCC/C=C/[C@H](CC(=O)N[C@H](C(C)C)C(=O)N2)OC(=O)[C@H](C(C)C)NC1=O [romidepsin]
